Columns and labels:
Type in all cases: physicochemical
[1] = Solubility to methyl ethyl ketone; details: for solubility (in words): compared with the halo boron intermediate compounds
[2] = Absorption measurement in chloroform (maximum absorption wavelength, molar absorbance coefficient); details: for Molar Absorbance Coefficient: 1 cm cell
Description: Measuring methods of the molar absorbance coefficient of the subphthalocyanine derivatives having the phosphorus derivative-substituted group obtained in the Examples 1-9 and the halo boron subphthalocyanine obtained in Synthesis Examples 1-4 were carried out as follows.
10.0 mg of the obtained compound was completely dissolved in 100 ml of chloroform. Then 10 ml of the solution was diluted with 100 ml of chloroform. Thus the absorbance of the obtained solution was measured using spectrophotometer (UV-1700 available from Shimadzu Corporation). Molar absorbance coefficient • was calculated using the following equation: A=•×C×l (A: absorbance, C: concentration (mol/L), l: light path (cm)) In the measurement, light pass length of the cell is 1 cm long.

[3] = Dissolution in coating solution for film manufacture; details: 0.5 parts in 68.5 parts cyclohexanone and 30 parts methyl ethyl ketone with 1.0 parts polycarbonate
Description: 0.5 parts of Compound 1 obtained in Example 1 and 1.0 parts of polycarbonate were added into 68.5 parts of cyclohexanone and 30 parts of methyl ethyl ketone and stirred and dissolved to obtain a coating solution.
A film was manufactured in the same way as in Example 10 except that Intermediate Compound 1 obtained in Synthesis Example 1 was used in place of Compound 1 in Example 10.

| solubility (in words) ([1]; methyl ethyl ketone) | Solubility ([1]; methyl ethyl ketone) | dissolution in coating liquid [3] | Compound | Solubility ([1]; Solvent: Methyl Ethyl Ketone) [wt %] | Maximum Absorption Wavelength [2] [nm] | Molar Absorbance Coefficient [2] |
| --- | --- | --- | --- | --- | --- | --- |
| remarkably improved | – | – | O=P(OB1n2c3c4ccccc4c2/N=C2N=C(/N=c4/c5ccccc5c(n41)=N3)c1ccccc1\2)(c1ccccc1)c1ccccc1 [Compound 1, SubPcBOPOPh2] | 0.44 | 564.0 | 7.69 ×10^−4 Lmol^−1cm^−1 |
| remarkably improved | more than 10 % by weight | – | CCCCOP(=O)(OCCCC)OB1n2c3c4ccccc4c2/N=C2N=C(/N=c4/c5ccccc5c(n41)=N3)c1ccccc1\2 [Compound 4, SubPcBOPO(OBu)2] | >10 | 562.5 | 7.78 ×10^−4 Lmol^−1cm^−1 |
| – | – | could not be fully dissolved | ClB1n2c3c4ccccc4c2/N=C2N=C(/N=c4/c5ccccc5c(n41)=N3)c1ccccc1\2 [Intermediate Compound 1, SubPcBCl, reference compound] | 0.003 | 565.0 | 5.10 ×10^−4 Lmol^−1cm^−1 |
| – | – | – | (PhS)3SubPcBCl [Intermediate Compound 11, reference compound] | – | 586.0 | 7.58 ×10^−4 Lmol^−1cm^−1 |
| – | – | – | (PhS)3SubPcBOPO(OBu)2 [Compound 26] | >10 | 584.0 | 9.95 ×10^−4 Lmol^−1cm^−1 |
| – | – | – | (PhS)3SubPcBOPOPh2 [Compound 24] | >10 | 584.5 | 7.24 ×10^−4 Lmol^−1cm^−1 |
| – | – | – | (i-C5H11S)3 SubPcBCl [Intermediate Compound 6, reference compound] | – | 587.5 | 5.82 ×10^−4 Lmol^−1cm^−1 |
| – | – | – | (i-C5H11S)3SubPcBOPO(OPh)2 [Compound 13] | – | 586.5 | 8.20 ×10^−4 Lmol^−1cm^−1 |
| – | – | – | (i-C5H11S)3SubPcBOPOPh2 [Compound 11] | >10 | 586.0 | 7.12 ×10^−4 Lmol^−1cm^−1 |
| – | – | – | (t-Bu)3 SubPcBCl [Intermediate Compound 2, reference compound] | >10 | – | – |
| – | – | – | (t-Bu)3SubPcBOPO(OBu)2 [Compound 7] | >10 | 568.0 | 7.62 ×10^−4 Lmol^−1cm^−1 |
| – | – | – | (t-Bu)3SubPcBOPOPh2 [Compound 5] | >10 | 570.5 | 8.74 ×10^−4 Lmol^−1cm^−1 |

| Compound | solubility (in words) ([1]; methyl ethyl ketone) | Solubility ([1]; methyl ethyl ketone) | dissolution in coating liquid [3] | Solubility ([1]; Solvent: Methyl Ethyl Ketone) [wt %] | Maximum Absorption Wavelength [2] [nm] | Molar Absorbance Coefficient [2] |
| --- | --- | --- | --- | --- | --- | --- |
| O=P(OB1n2c3c4ccccc4c2/N=C2N=C(/N=c4/c5ccccc5c(n41)=N3)c1ccccc1\2)(Oc1ccccc1)Oc1ccccc1 [Compound 3, SubPcBOPO(OPh)2] | remarkably improved | – | – | 0.34 | 564.5 | 6.96 ×10^−4 Lmol^−1cm^−1 |

From patent US8105431B2, “Subphthalocyanine derivative having phosphorus derivative as axially substituted group, method for manufacturing the same and optical film using the same” (Orient Chemical Industries, Ltd., priority 2008, dated 2012)
